Patent US12410166B2, “Sulfonylamidine substituted compounds and their use as beta-lactamase inhibitors” (NINGXIA ACADEMY OF AGRICULTURE AND FORESTRY SCIENCES, priority 2021, dated 2025)
Counter-ions that a name gives are not always drawn.

Legend:
Assay in all cases: MIC by broth microdilution (antibacterial and synergistic activity)
Assay type in all cases: cell-based
[1] = tested on: K. pneumoniae 700603 (strain 4, KPC-3, TEM-1); settings: Klebsiella pneumoniae; strain 4 (KPC-3, TEM-1); compound alone, no antibiotic; read-out: Antibacterial activity, MIC, inhibitor Alone
Protocol: (§1) Compounds of the present invention alone, avibactam (AVI) alone, relebactam (REL) alone, meropenem (MER) alone, imipenem (IMI) alone, and as a combination of compounds of the present invention, or avibactam or relebactam with test antibiotic (meropenem or imipenem) was tested for antimicrobial activity by determining minimum inhibitory concentration (MIC, mg/L) using the broth microdilution method according to the guidelines of the Clinical Laboratories and Standards Institute (“Methods for Dilution Antimicrobial Susceptibility Tests for Bacterial that Grow Aerobically”, Approved standard, 7th ed., Clinical and Laboratories Standards Institute (CLSI) Document M7-A8, Wayne, Pa., USA, 2009). Meropenem or imipenem as a test antibiotic compound was dissolved in DMSO, and then diluted in microbial growth medium (Mueller-Hinton Broth II, cation adjusted) resulting in a final concentration range of 0.031-64 mg/L in serial two-fold dilution. In all cases the final DMSO concentration was less than 0.5%. Bacteria were added to 96-well microtitre plates containing the serial two-fold dilutions of the compounds; the final cell density was approximately 5×10^5 colony forming units/mL (CFU/mL). Plates were incubated at 37° C. for 18-24 hours and read visually. The MIC, i.e. the lowest concentration of the test compound that inhibited visible growth of the bacteria, was recorded. The same assay conditions were used when the compounds of present invention alone, avibactam or relebactam alone (as a control), and as a combination of the present invention each compound, or avibactam or relebactam with test meropenem or imipenem antibiotic compound was tested for minimum inhibitory concentration (MIC, mg/L). While test meropenem or imipenem was serially diluted as described above, a constant concentration of avibactam, or relebactam or the present invention each compound of 4 mg/L was used.
(§2) Bacterial strains that were used to evaluate the antimicrobial activity using the MIC determination included but were not limited to E. coli clinical isolate (strain 1, TEM-1), E. coli 8739 (strain 2, CTX-M15), K. pneumoniae clinical isolate (strain 3, SHV-1), K. pneumoniae 700603 (strain 4, KPC-3, TEM-1), E. cloacae clinical isolate (strain 5, P99), E. cloacae 700323 (strain 6, AmpC), A. baumannii clinical isolate (strain 7, OXA-23, OXA-40), A. baumannii 19606 (strain 8, OXA-24), P. aeruginosa clinical isolate (strain 9, KPC-2), P. aeruginosa 9027 (strain 10, AmpC).

[2] = tested on: P. aeruginosa clinical isolate (strain 9, KPC-2); settings: Pseudomonas aeruginosa; strain 9 (KPC-2); compound alone, no antibiotic; read-out: Antibacterial activity, MIC, inhibitor Alone
Protocol: as §1, §2

[3] = tested on: P. aeruginosa 9027 (strain 10, AmpC); settings: Pseudomonas aeruginosa; strain 10 (AmpC); compound alone, no antibiotic; read-out: Antibacterial activity, MIC, inhibitor Alone
Protocol: as §1, §2

[4] = tested on: A. baumannii clinical isolate (strain 7, OXA-23, OXA-40); settings: Acinetobacter baumannii; strain 7 (OXA-23/40); compound alone, no antibiotic; read-out: Antibacterial activity, MIC, inhibitor Alone
Protocol: as §1, §2

[5] = tested on: E. coli 8739 (strain 2, CTX-M15); settings: Escherichia coli, read-out: Antibacterial activity, MIC, inhibitor Alone
Protocol: as §1, §2

[6] = tested on: A. baumannii 19606 (strain 8, OXA-24); settings: Acinetobacter baumannii, read-out: Antibacterial activity, MIC, inhibitor Alone
Protocol: as §1, §2

[7] = tested on: E. coli clinical isolate (strain 1, TEM-1); settings: Escherichia coli; strain 1 (TEM-1); compound alone, no antibiotic; read-out: Antibacterial activity, MIC, inhibitor Alone
Protocol: as §1, §2

[8] = tested on: E. cloacae 700323 (strain 6, AmpC); settings: Enterobacter cloacae; strain 6 (AmpC); compound alone, no antibiotic; read-out: Antibacterial activity, MIC, inhibitor Alone
Protocol: as §1, §2

[9] = tested on: E. cloacae clinical isolate (strain 5, P99); settings: Enterobacter cloacae; strain 5 (P99); compound alone, no antibiotic; read-out: Antibacterial activity, MIC, inhibitor Alone
Protocol: as §1, §2

[10] = tested on: K. pneumoniae clinical isolate (strain 3, SHV-1); settings: Klebsiella pneumoniae; strain 3 (SHV-1); compound alone, no antibiotic; read-out: Antibacterial activity, MIC, inhibitor Alone
Protocol: as §1, §2

Measured: MIC

N=C(NS(=O)(=O)c1ccccn1)[C@@H]1CC[C@@H]2CN1C(=O)N2OS(=O)(=O)O [Ex. 12, (2S,5R)-7-Oxo-2-(N-(pyridin-2-ylsulfonyl)carbamimidoyl)-1,6-diazabicyclo[3.2.1]octan-6-yl hydrogen sulfate]
> 64 µg/mL: all assays above

NC(=O)[C@@H]1CC[C@@H]2CN1C(=O)N2OS(=O)(=O)O [AVI, avibactam, reference compound]
> 64 µg/mL: all assays above

N=C(NS(=O)(=O)c1cnccn1)[C@@H]1CC[C@@H]2CN1C(=O)N2OS(=O)(=O)O [Ex. 24, (2S,5R)-7-oxo-2-(N-(pyrazin-2-ylsulfonyl)carbamimidoyl)-1,6-diazabicyclo[3.2.1]octan-6-yl hydrogen sulfate]
> 64 µg/mL: all assays above

O=C(NC1CCNCC1)[C@@H]1CC[C@@H]2CN1C(=O)N2OS(=O)(=O)O [REL, relebactam, reference compound]
> 64 µg/mL: all assays above

N=C(NS(=O)(=O)C(F)(F)F)[C@@H]1CC[C@@H]2CN1C(=O)N2OS(=O)(=O)O [Ex. 14, (2S,5R)-7-oxo-2-(N-((trifluoromethyl)sulfonyl)carbamimidoyl)-1,6-diazabicyclo[3.2.1]octan-6-yl hydrogen sulfate]
> 64 µg/mL: all assays above
